Reference: patent US20260069606A1, “Oxidative Stress and Diabetes Treatment with Cobinamide” (The Regents of the University of California, priority 2022, published 2026)

What was measured:
[1] = mice, same amount of cobinamide for six months; cited from earlier work
[2] = Reaction with hydrogen peroxide, H2O2-specific electrode; assay type: biochemical
Experimental: FIGS. 2A-2F. Cobinamide Functions as a Catalase Mimetic and Reacts with Peroxynitrite. […]. Hydrogen peroxide (final concentration 50 μM) was added to solutions containing increasing concentrations of Chi(III) (FIG. 2A) or Chi(II) (FIG. 2C), and the H2O2 concentration was measured over time using a H2O2-specific electrode. The log of the velocity in the presence of Chi(III) (FIG. 2B) or Chi(II) (v) (FIG. 2D) over the velocity in their absence (Vo) is plotted against the log of their concentrations at 20 min over their concentrations at zero time. These plots yield a reaction order with respect to Chi(III) and Cbi(II) of 0.7. The experiments were repeated three times with similar results. Dotted lines show 95% confidence intervals. FIG. 2E. […] The Chi(III) spectra are slightly different from those shown in FIG. 1G because at pH 11, dihydroxo-cobinamide is generated, whereas at pH 7.1, aquohydroxo-cobinamide is the predominant species. The spectra of aquohydroxo- and dihydroxo-cobinamide are known to be different^65. FIG. 2F. Varying concentrations of Chi(II) from 1 to 10 μM were mixed with 10 μM peroxynitrite in a stopped-flow instrument, and absorption at 315 nm was monitored for 0.5 sec. The results for 5 μM Cbi(II) are shown; red circles are the observed data, and the black line is a two-phase non-linear regression curve generated by Prism 7.04 software. […] The experiment was repeated three times with similar results. Dotted lines show 95% confidence intervals.
(§1) Table I. Reaction Rates of Cobinamide (Cbi), Cobalamin, Imisopasem, and MnTBAP with Reactive Oxygen and Nitrogen Species. Reactions of the indicated compounds with O2·^−, ONOO^−, and ·NO are all second order reactions with rate constants in units of M^−1 s^−1. The reactions of Cbi(III) and Cbi(II) with H2O2 are third order with rate constant units of M^−2 s^−1. Chi(II) and cobalamin(II) bind nitric oxide, so a Ka is shown in units of M^−1. For the new data presented in this study, rate constants were measured for O2·^− using a hypoxanthine-xanthine oxidase-cytochrome c system, for H2O2 using a H2O2-specific sensor (World Precision Instruments), and for ONOO^− using a stopped-flow instrument. Published rate constants for Cu/Zn and Mn superoxide dismutases (SOD) and catalase are shown for reference.^a,b Letters and numbers in parenthesis refer to footnotes and references, respectively.
Both Cbi(III) and Chi(II) react with H2O2, and the reaction was essentially first order with respect to Cbi(III) and Cbi(II) (FIG. 2A-D), and second order with respect to H2O2 for both cobinamide species. […]

[3] = system: mouse model of human familial aortic aneurysm; conditions: 1 mM cobinamide in drinking water; cited from earlier work
[4] = system: D. melanogaster; assay: Survival of fruit flies during paraquat poisoning; assay type: in vivo; conditions: 20 mM paraquat with 0.8 mM drug in food, over 7 d
Experimental: The number of live flies was counted each day for 7 d. The experiment was repeated seven times, for a total of 70 flies per condition. The percent surviving flies was calculated; error bars represent standard deviations and are shown in one direction only for sake of clarity. […] Chi, cobinamide in Panel A and histidyl-cobinamide in Panels B-K; Imp, imisopasem; MnTP, MnTBAP; CbL, cobalamin; DNPH, 2,4-dinitrophenylhydrazine; ND, non-diabetic; D, diabetic; Veh, vehicle.
To test cobinamide in a whole animal, D. melanogaster was selected for initial studies, and oxidative stressed was increased in the files by administering paraquat in their food. Cobinamide was again compared to imisopasem, MnTBAP, and hydroxocobalamin, all administered in food.

[5] = Reaction with superoxide, hypoxanthine-xanthine oxidase-cytochrome c reduction system; assay type: biochemical; conditions: for Apparent rate constant, reaction with superoxide (O2·^−): second order, hypoxanthine-xanthine oxidase-cytochrome c system, new data of this study
Experimental: FIGS. 1A-1G. Cobinamide Functions as a Superoxide Dismutase Mimetic. FIGS. 1A-1B. Chemical structures of aquohydroxo-cobinamide (FIG. 1A) and hydroxo-cobalamin (FIG. 1B). FIGS. 1C, 1E. Increasing concentrations of Chi(III) (FIG. 1C) or Chi(II) (FIG. 1E) were incubated in a hypoxanthine-xanthine oxidase-cytochrome c-catalase system for measuring O2·^−, with the change in absorbance at 550 nm (ΔAbs) plotted versus time. A no substrate (no hypoxanthine) control was included. FIGS. 1D, 1F. The calculated rate of change of absorbance at 550 nm in the absence of Chi(III) or Chi(II) (Vo) divided by the calculated rate in their presence (v) is plotted against the Chi(III) (FIG. 1D) or Chi(II) (FIG. 1F) concentration, respectively. The slope of the fitted line was used to calculate the apparent rate constant according to the following equation: kCbi=slope×kcytochrome c×[cytochrome c], where kcytochrome c=1.4×10^6 M^−1 s^−1 and [cytochrome c]=70 μM^70. The data shown are the mean of duplicate samples from one experiment, with similar results found in two additional experiments. Dotted lines show 95% confidence intervals. FIG. 1G. A 20 μM solution of Chi(III) in DMSO was scanned from 280 to 600 nm yielding the spectrum shown as a black line. An equimolar amount of […] (KO2) dissolved in dimethyl sulfoxide (DMSO) was added and the solution was scanned immediately, yielding the grey line. […] The experiment was conducted three times with identical results.
as §1
The reaction of cobinamide with O2·^− was studied in two different systems, generating O2·^− using a hypoxanthine-xanthine oxidase system.
The first system contained 100 μM hypoxanthine and 0.1 unit xanthine oxidase in 20 mM sodium phosphate buffer, pH 7.1. The amount of O2·^− was measured by following reduction of ferric-cytochrome c (70 μM) at 550 nm as described previously^65. Catalase was included (32 units per sample), because xanthine oxidase generates both O2·^− and H2O2, and the latter can re-oxidize the ferro-cytochrome c product^34,66. The reaction was followed for 10 min. A no substrate blank lacking hypoxanthine was included.
In both systems, the experiments were conducted in the absence and presence of the indicated concentrations of Cbi(III) or Chi(II) 65.
Catalase was included in the reaction mixture, because the hypoxanthine-xanthine oxidase system also generates H2O2 and the latter can oxidize the ferro-cytochrome c product back to ferric-cytochrome c, thereby interfering with the kinetic measurement^34.

C/C1=C2/[N-][C@H]([C@H](CC(N)=O)[C@@]2(C)CCC(=O)NC[C@@H](C)O)[C@]2(C)N=C(/C(C)=C3N=C(/C=C4N=C1[C@@H](CCC(N)=O)C\4(C)C)[C@@H](CCC(N)=O)[C@]\3(C)CC(N)=O)[C@@H](CCC(N)=O)[C@]2(C)CC(N)=O.[Co+3] [cobinamide, aquohydroxo-cobinamide]
Hematological parameters [1]: did not affect hematological parameters
Reaction order with respect to the cobinamide species in the reaction with H2O2 ([2]; 50 μM H2O2): 0.7
Apparent rate constant, reaction with hydrogen peroxide (H2O2) ([2]; third order, H2O2-specific sensor, new data of this study, listed as Cbi(III)): 8.0 × 10^2 M^−2 s^−1
Aortic oxidative stress, pathological changes and aneurysm formation [3]: blocked the increase in oxidative stress and pathological changes, and prevented aneurysm formation
Clinical or laboratory evidence of toxicity [3]: no clinical or laboratory evidence of toxicity
Mortality of paraquat-exposed flies [4]: < 30%
Apparent rate constants, reaction with O2·^− ([5]; hypoxanthine-xanthine oxidase-cytochrome c reduction system, catalase included, exponent shared in the sentence): 1.12e+08 M⁻¹ s⁻¹
Apparent rate constant, reaction with superoxide (O2·^−) ([5]; listed as Cbi(III)): 1.1e+08 M⁻¹ s⁻¹
Apparent rate constant, reaction with superoxide (O2·^−) ([5]; listed as Chi(III)): 1.12e+08 M⁻¹ s⁻¹
